Results reported in patent publication US7582652B2, “Kinase inhibitors” (Eli Lilly and Company, priority 2004, dated 2009).

Experiments:
[1] = tested on: TNF-α production in mouse peritoneal macrophages; assay: Inhibition of TNF-α in vitro (mouse peritoneal macrophages, LPS/interferon-γ, Luminex); type: cell-based; conditions: Mus musculus, Peritoneal macrophage; suppression of TNF-α; macrophages treated with 50 ng/mL LPS and 10 U/mL interferon-γ for 18 h
Procedure: Mouse Peritoneal Macrophages
1 mL thioglycolate broth (5.0 g yeast extract, 15.0 g casitone or trypticase, 5.0 g dextrose, 2.5 g sodium chloride, 0.75 g L-cystine, 0.5 g sodium thioglycolate, 1.0 mg resazurin, and 0.75 g agar in 1.0 L distilled water) is injected into the peritoneal cavity of Balb/C female mice. At day 4 or 5 post-injection the mice are sacrificed and then injected i.p. with 4 mL RPMI-1640 medium (BioWhittaker) and the peritoneal macrophages are withdrawn by syringe.
Mouse peritoneal microphages are counted with a hemocytometer and adjusted to 5×10^5 cells/well in 96-well plates in RPMI-1640 medium with 10% fetal bovine serum. 200 μL/well is plated in 96-well plates and the cells allowed to settle and adhere to the bottom of the well for at least 3 h. The test compound or standard p38 kinase inhibitor is pre-treated using a series of 8 concentrations for 1 h at 37° C. (20 μL/well). The cells are treated with a mixture of 50 ng/mL lipopolysaccharide (LPS) and 10 U/mL interferon-γ for 18 h at 37° C. (20 μL/well). The conditioned media is harvested and assayed for TNF-α production using the Luminex procedure.
TNF-α/Luminex Detection Assay (Bio-Rad Bio-Plex Kit—Catalog #171-G12221)
The lyophilized premixed TNF-α standard (1 standard tube/two 96-well plates) is reconstituted with 50 μL sterile water (500,000 pg/mL). The samples are vortexed for 5 seconds, incubated on ice for 30 min, and vortexed for 5 seconds before use. A set of twelve 1.5 mL tubes are labeled with #1-thru #12 and then the amounts of cell media shown below added to the appropriate tubes (standard concentrations are as follows: 50,000; 25,000; 12,500; 6,250; 3,125; 1,562.5; 781.3; 390.6; 195.3; 97.7; 48.8; and 24.4 pg/mL). The premixed anti-cytokine conjugated beads are vortexed (25×) vigorously for 30 seconds. The anti-cytokine conjugated beads are diluted to a 1× concentration using 1× Bio-Plex Assay Buffer. For every plate, 240 μL of the pre-mixed beads is added to 5760 μL of Bio-Plex Assay Buffer. A Millipore 96-well filter plate is blocked with 100 μL/well of blocking buffer. The blocking buffer is filtered through using a Millipore filtration system and then toweled dry. 2 washes are performed on the filter plate with 100 μL/well of Bio-Plex Assay Buffer and toweled dry. The 1× anti-cytokine conjugated beads are vortexed for 15 seconds and added 50 μL to each well. This is filtered through and toweled dry. 2 washes are performed on plates with 100 μl/well of Bio-Plex Wash Buffer. Again, it is filtered through and toweled dry. 50 μL of sample or standard is added to each sample well. This is incubated for 60 seconds at RT on a shaker protected from light at setting 6 and then for 30 min at setting 3 and then placed in the refrigerator overnight. 3 washes are performed with Bio-Plex Wash Buffer. Filter through and toweled dry. The cytokine detection antibody is prepared (˜10 min prior to use) for every plate and 60 μL of the premixed cytokine detection antibody stock is added to 5940 μL of Bio-Plex Detection Antibody Diluent. 50 μL of cytokine detection antibody is added and incubated for 60 seconds at RT on a shaker protected from light at setting 6 and then for 30 min at setting 3.3 washes are performed with the Bio-Plex Wash Buffer. This is filtered through and toweled dry. Strept-PE (˜10 minutes prior to use) is prepared for every plate and 60 μL to 5940 μL of Bio-Plex Assay Buffer added. 50 μL of Streptavidin-PE is added to each well and incubated for 60 seconds at RT on a shaker protected from light at setting 6 and then for 10 min at setting 3. 3 washes are performed with Bio-Plex Wash-Buffer. This is filtered through. The beads are re-suspended in 100 μL/well of Bio-Plex Assay Buffer. Standards and samples are read on a Luminex machine. […]

[2] = target: p38 kinase enzyme (Homo sapiens, UniProt Q16539); assay: Inhibition of p38 kinase; type: biochemical; conditions: 33P-ATP, EGF peptide 661-681, 30° C.
Chain of p38 kinase enzyme (Q16539 whole entry): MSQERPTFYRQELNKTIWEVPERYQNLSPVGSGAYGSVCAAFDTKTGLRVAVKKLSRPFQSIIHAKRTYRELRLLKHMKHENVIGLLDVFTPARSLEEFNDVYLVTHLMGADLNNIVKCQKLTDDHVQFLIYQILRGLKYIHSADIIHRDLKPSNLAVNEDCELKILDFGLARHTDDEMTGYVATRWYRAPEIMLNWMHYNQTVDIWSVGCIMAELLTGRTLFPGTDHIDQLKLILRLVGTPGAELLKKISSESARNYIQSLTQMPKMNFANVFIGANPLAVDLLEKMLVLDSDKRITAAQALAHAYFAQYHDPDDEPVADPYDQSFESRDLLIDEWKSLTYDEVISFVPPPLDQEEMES
Procedure: Standard Solution Preparations
The kinase buffer solution is prepared by combining 2.5 mL 1 M Tris-HCl (pH 7.5), 0.1 ml 1 M dithiothreitol, 1.0 mL 1 M magnesium chloride, and 300 μL 1% Triton X-100 and diluting to 100 mL with water. 84 mL of this kinase buffer solution is combined with 16 mL DMSO to prepare the 16% DMSO solution.
The 200 μM ATP solution is prepared by adding 102.6 μL 10 mM aqueous ATP, 25 μL ^33P-ATP, and 163.5 μL of 4 mM aqueous Epidermal Growth Factor Peptide 661-681 (Biomol, Catalog #P-121) in 5 mL kinase buffer solution.
The p38 kinase enzyme solution is prepared by dissolving 9.5 μL concentrated enzyme solution (250 ng p38 enzyme/μL kinase buffer solution) in 1536 μL kinase buffer solution.
An 80 μM solution of each test compound and control compound are prepared by dissolving 2 μL of a 10 mM stock solution of the respective compounds in dimethylsulfoxide in 248 μL of the 16% DMSO solution in a Costar 96-well microtiter plate. The plate is placed onto the Tecan Genesis automated liquid handler for 1:3 serial dilutions.
10 μL of serially diluted compound is placed with a Beckmnan Multimek 96-well automated liquid handler to the assay plate. […] of 200 μM ATP solution is added with a Titertek Multidrop 8-channel liquid handler. 10 μL of p38 kinase enzyme solution is transferred to the assay plate using the Multimek. The mixture is allowed to react for […] and then the reaction is stopped by adding 60 μL of freshly prepared 5% glacial AcOH with Multidrop. 80 μL of this solution is transferred to an “MAPH” plate using the Multimek. The plates are allowed to set for 30 min at RT and then washed/aspirated on the Titertek MAP extractor with freshly prepared 0.5% glacial AcOH (1×300 μL, 2×200 μL). The wells are blotted and 100 μL MicroScint-20 scintillation fluid (Packard Bioscience) is added with the Multidrop. The plates are allowed to sit for 30 min and counted on a PE/Wallac Microbeta Trilux scintillation counter for ^33P-isotope.
All exemplified compounds were initially tested at 10 concentrations (20 μM−1 nM using 1:3 serial dilutions). […] IC50 values were calculated (IDBS ActivityBase software) for each compound using non-linear regression.

Compound	IC50 [1]	IC50 [2]
CC(C)(C)Cn1c(N)nc2ccc(-c3[nH]c(-c4c(F)cccc4C(F)(F)F)nc3-c3ccccc3)nc21 [EXAMPLE 6, 3-(2,2-Dimethylpropyl)-5-[2-(2-fluoro-6-trifluoromethylphenyl)-5-phenyl-3H-imidazol-4-yl]-3H-imidazo[4,5-b]pyridin-2-ylamine methanesulfonate]	< 9.1 nM	7.2 nM
CC(C)(C)Cn1c(N)nc2ccc(-c3[nH]c(C(C)(C)C)nc3-c3ccc(F)cc3)nc21 [EXAMPLE 9, 5-[2-tert-Butyl-5-(4-fluorophenyl)-3H-imidazol-4-yl]-3-(2,2-dimethylpropyl)-3H-imidazo[4,5-b]pyridin-2-ylamine methanesulfonate]	1.2 nM	–
CC(C)(C)Cn1c(N)nc2ccc(-c3[nH]c(C(C)(C)C)nc3-c3ccc(F)cc3F)nc21 [EXAMPLE 11, 5-[2-tert-Butyl-5-(2,4-difluorophenyl)-3H-imidazol-4-yl]-3-(2,2-dimethylpropyl)-3H-imidazo[4,5-b]pyridin-2-ylamine methanesulfonate]	2.4 nM	–
C[C@@H](n1c(N)nc2ccc(-c3[nH]c(C(C)(C)C)nc3-c3ccc(F)cc3)nc21)C(C)(C)C [compound 12, R-5-[2-tert-Butyl-5-(4-fluorophenyl)-3H-imidazol-4-yl]-3-(1,2,2-trimethylpropyl)-3H-imidazo[4,5-b]pyridin-2-ylamine methanesulfonate]	–	3.6 nM
C[C@@H](n1c(N)nc2ccc(-c3[nH]c(-c4c(F)cccc4F)nc3-c3ccc(F)cc3)nc21)C(C)(C)C [compound 13, R-5-[2-(2,6-Difluorophenyl)-5-(4-fluorophenyl)-3H-imidazol-4-yl]-3-(1,2,2-trimethylpropyl)-3H-imidazo[4,5-b]pyridin-2-ylamine methanesulfonate]	< 9.1 nM	3.3 nM
CC(C)(C)Cn1c(N)nc2ccc(-c3[nH]c(-c4c(F)cccc4Cl)nc3-c3ccccc3)nc21 [compound 18, 5-[2-(2-Chloro-6-fluorophenyl)-5-phenyl-3H-imidazol-4-yl]-3-(2,2-dimethylpropyl)-3H-imidazo[4,5-b]pyridin-2-ylamine methanesulfonate]	< 9.1 nM	3.6 nM
Nc1nc2ccc(-c3[nH]c(-c4c(F)cccc4F)nc3-c3ccccc3)nc2n1CC1CC1 [compound 19, 3-Cyclopropylmethyl-5-[2-(2,6-difluorophenyl)-5-phenyl-3H-imidazol-4-yl]-3H-imidazo[4,5-b]pyridin-2-ylamine methanesulfonate]	< 9.1 nM	3.2 nM
